Laboratory results: the supplement of paper PMC10307832

Legend:
Assay in all cases: relative viability (nuclei count vs DMSO), 5 days (fraction); higher = more cells survive
[1] = compound: O=C1NC(=O)[C@@H](c2cn3c4c(cccc24)CCC3)[C@@H]1c1c[nH]c2ccccc12 [Tivantinib] + Cc1nc(Nc2ncc(C(=O)Nc3c(C)cccc3Cl)s2)cc(N2CCN(CCO)CC2)n1 [Dasatinib] (partner 0.075 µM)
Summary of the method: (§1)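 Nuclei were stained with Hoechst during a one-step fixation (final 0.05% Triton X-100, 1% formaldehyde, 1 ug/ml Hoechst) carried out 5 days after dosing, then counted on 4× images. The cells, lung cancer lines in 1536-well plates, had been dosed by pin tool the day after seeding with one drug alone or a fixed anchor-drug dose plus five library-drug doses (not always all listed) in √10 steps. Relative viability is the nuclei count in treated wells divided by that in vehicle wells, and each value is the median of duplicate plates.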

[2] = compound: CC1(COc2ccc3c(c2)ncn3-c2ccc3cccc(N4CCC(N)CC4)c3n2)COC1 [Crenolanib] + Nc1ncn([C@H]2C[C@H](O)[C@@H](CO)O2)c(=O)n1 [Decitabine] (partner 2 µM)
Summary of the method: as §1

[3] = compound: O=C1NC(=O)[C@@H](c2cn3c4c(cccc24)CCC3)[C@@H]1c1c[nH]c2ccccc12 [Tivantinib] + CCNC(=O)c1noc(-c2cc(C(C)C)c(O)cc2O)c1-c1ccc(CN2CCOCC2)cc1 [Luminespib] (partner 0.01 µM)
Summary of the method: as §1

[4] = compound: CC1(COc2ccc3c(c2)ncn3-c2ccc3cccc(N4CCC(N)CC4)c3n2)COC1 [Crenolanib] + CC(C)C[C@H](NC(=O)[C@H](Cc1ccccc1)NC(=O)c1cnccn1)B(O)O [Bortezomib] (partner 0.002 µM)
Summary of the method: as §1

Cell Line | relative viability ([1]; first compound 0.01 µM) | relative viability ([1]; first compound 0.03162 µM) | relative viability ([1]; first compound 0.1 µM) | relative viability ([1]; first compound 0.3162 µM) | relative viability ([2]; first compound 0.01 µM) | relative viability ([2]; first compound 0.03162 µM) | relative viability ([2]; first compound 0.1 µM) | relative viability ([2]; first compound 0.3162 µM) | relative viability ([2]; first compound 1 µM) | relative viability ([3]; first compound 0.01 µM) | relative viability ([3]; first compound 0.03162 µM) | relative viability ([3]; first compound 0.1 µM) | relative viability ([3]; first compound 0.3162 µM) | relative viability ([4]; first compound 0.01 µM) | relative viability ([4]; first compound 0.03162 µM) | relative viability ([4]; first compound 0.1 µM) | relative viability ([4]; first compound 0.3162 µM) | relative viability ([4]; first compound 1 µM)
LCLC-97TM1 | 0.796 | 0.61 | 0.869 | 0.824 | 0.203 | 0.221 | 0.193 | 0.226 | 0.208 | 0.773 | 0.788 | 0.673 | 0.764 | 0.454 | 0.396 | 0.69 | 0.896 | 0.699
LCLC-103H | 0.424 | 0.428 | 0.429 | 0.436 | 0.752 | 0.709 | 0.692 | 0.769 | 0.72 | 1.02 | 0.938 | 0.976 | 0.856 | 1.05 | 1.02 | 0.922 | 0.954 | 0.976
LOU-NH91 | 0.586 | 0.565 | 0.568 | 0.464 | 0.863 | 0.792 | 0.822 | 0.856 | 0.853 | 0.373 | 0.369 | 0.309 | 0.367 | 0.336 | 0.474 | 0.45 | 0.49 | 0.513
LU99A | 0.533 | 0.64 | 0.527 | 0.402 | 0.976 | 0.844 | 0.897 | 1.07 | 0.975 | 0.277 | 0.26 | 0.235 | 0.208 | 1.23 | 1.28 | 0.983 | 1.34 | 1.05
LXF-289 | 0.302 | 0.261 | 0.19 | 0.175 | 0.402 | 0.349 | 0.408 | 0.388 | 0.413 | 0.757 | 0.646 | 0.599 | 0.723 | 1.07 | 0.996 | 0.935 | 1 | 0.95
NCI-H23 | 0.876 | 0.809 | 0.699 | 0.782 | 0.288 | 0.359 | 0.347 | 0.353 | 0.321 | 0.278 |  | 0.215 | 0.226 | 0.892 | 1.2 | 0.865 | 1.16 | 0.696
NCI-H322M | 0.25 | 0.234 | 0.273 |  | 0.863 | 0.748 | 0.663 | 0.73 | 0.71 | 0.977 | 0.874 | 0.737 |  | 1.36 | 0.923 | 1.1 | 1.27 | 1.4
NCI-H441 | 0.801 | 0.555 | 0.356 | 0.433 | 0.259 | 0.276 | 0.277 | 0.251 | 0.243 | 0.343 | 0.359 | 0.27 | 0.337 | 0.29 |  | 0.535 | 0.446 | 0.557
NCI-H460 | 0.461 | 0.35 | 0.484 | 0.492 | 0.261 | 0.475 | 0.442 | 0.682 | 0.555 | 0.0321 | 0.0359 | 0.0227 | 0.0374 | 1.05 | 1.2 | 1.01 | 1.6 | 0.954
